Test results: patent US12421252B2, “Spiro (isobenzofuranazetidine) compounds for the treatment of autoimmune disease” (Hoffmann-La Roche Inc., priority 2020, dated 2025)

Experiments:
hERG channel = biological target: T1, hERG channel (Homo sapiens, UniProt Q12809); test: hERG channel inhibition assay (patch-clamp, CHO hERG cells); assay type: cell-based; conditions: for safety window (hERG IC20/TLR7/8/9 IC50, in words): compared to the compounds of this invention; for hERG IC20/TLR7 IC50 / hERG IC20/TLR9 IC50: safety ratio
T1 construct: expressed in transfected cells
T1 sequence (Q12809 whole entry): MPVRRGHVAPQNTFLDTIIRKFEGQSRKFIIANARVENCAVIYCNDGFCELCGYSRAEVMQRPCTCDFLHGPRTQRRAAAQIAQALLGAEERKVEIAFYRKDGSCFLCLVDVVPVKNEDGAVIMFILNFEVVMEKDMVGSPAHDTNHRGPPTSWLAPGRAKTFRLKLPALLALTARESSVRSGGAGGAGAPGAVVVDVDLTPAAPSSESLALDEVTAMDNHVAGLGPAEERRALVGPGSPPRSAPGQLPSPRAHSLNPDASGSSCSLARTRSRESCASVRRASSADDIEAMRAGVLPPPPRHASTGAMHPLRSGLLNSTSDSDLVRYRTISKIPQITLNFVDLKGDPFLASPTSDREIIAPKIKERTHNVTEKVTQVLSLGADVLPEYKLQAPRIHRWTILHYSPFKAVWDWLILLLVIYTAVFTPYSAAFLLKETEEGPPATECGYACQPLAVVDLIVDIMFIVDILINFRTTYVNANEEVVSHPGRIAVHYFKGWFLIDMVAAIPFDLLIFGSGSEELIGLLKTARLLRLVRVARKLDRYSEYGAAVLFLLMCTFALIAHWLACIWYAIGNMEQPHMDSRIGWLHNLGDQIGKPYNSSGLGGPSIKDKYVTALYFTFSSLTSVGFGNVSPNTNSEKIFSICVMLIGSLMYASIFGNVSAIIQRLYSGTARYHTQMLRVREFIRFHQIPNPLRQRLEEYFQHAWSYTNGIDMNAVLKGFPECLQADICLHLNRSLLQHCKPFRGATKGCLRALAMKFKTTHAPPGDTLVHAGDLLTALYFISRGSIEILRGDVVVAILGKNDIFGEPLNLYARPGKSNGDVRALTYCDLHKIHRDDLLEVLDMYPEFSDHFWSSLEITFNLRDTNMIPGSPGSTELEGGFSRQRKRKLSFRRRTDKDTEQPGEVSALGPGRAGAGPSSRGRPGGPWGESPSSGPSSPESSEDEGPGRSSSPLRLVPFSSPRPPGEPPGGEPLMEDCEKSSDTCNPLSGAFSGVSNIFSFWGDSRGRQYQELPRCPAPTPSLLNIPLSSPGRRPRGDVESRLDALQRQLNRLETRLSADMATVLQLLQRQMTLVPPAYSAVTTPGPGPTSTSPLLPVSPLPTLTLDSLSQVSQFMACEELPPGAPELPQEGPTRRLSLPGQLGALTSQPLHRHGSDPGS
Method: hERG Channel Inhibition Assay:
The hERG K+ channels were cloned in humans and stably expressed in a CHO (Chinese hamster ovary) cell line. CHOhERG cells were used for patch-clamp (voltage-clamp, whole-cell) experiments. Cells were stimulated by a voltage pattern to activate hERG channels and conduct IKhERG Currents (rapid delayed outward rectifier potassium current of the hERG channel). After the cells were stabilized for a few minutes, the amplitude and kinetics of IKhERG were recorded at a stimulation frequency of 0.1 Hz, (6 bpm). Thereafter, the test compound was added to the preparation at increasing concentrations. For each concentration, an attempt was made to reach a steady-state effect, usually, this was achieved within 3-10 min at which time the next highest concentration was applied. The amplitude and kinetics of IKhERG are recorded in each concentration of the drug which were compared to the control values (taken as 100%). (references: Redfern W S, Carlsson L, Davis A S, Lynch W G, MacKenzie I, Palethorpe S, Siegl P K, Strang I, Sullivan A T, Wallis R, Camm A J, Hammond T G. 2003; Relationships between preclinical cardiac electrophysiology, clinical QT interval prolongation and torsade de pointes for a broad range of drugs: evidence for a provisional safety margin in drug development. Cardiovasc. Res. 58:32-45, Sanguinetti M C, Tristani-Firouzi M. 2006; hERG potassium channels and cardiac arrhythmia. Nature 440:463-469, Webster R, Leishman D, Walker D. 2002; Towards a drug concentration effect relationship for QT prolongation and torsades de pointes. Curr. Opin. Drug Discov. Devel. 5:116-26).

hTLR9 = biological target: T2, hTLR9 (Homo sapiens, UniProt Q9NR96); set-up: host or cells: HEK; conditions: data disclosed in US20150105370; read-out: HEK/hTLR9 IC50; cited from earlier work
T2 sequence (Q9NR96 26-1032): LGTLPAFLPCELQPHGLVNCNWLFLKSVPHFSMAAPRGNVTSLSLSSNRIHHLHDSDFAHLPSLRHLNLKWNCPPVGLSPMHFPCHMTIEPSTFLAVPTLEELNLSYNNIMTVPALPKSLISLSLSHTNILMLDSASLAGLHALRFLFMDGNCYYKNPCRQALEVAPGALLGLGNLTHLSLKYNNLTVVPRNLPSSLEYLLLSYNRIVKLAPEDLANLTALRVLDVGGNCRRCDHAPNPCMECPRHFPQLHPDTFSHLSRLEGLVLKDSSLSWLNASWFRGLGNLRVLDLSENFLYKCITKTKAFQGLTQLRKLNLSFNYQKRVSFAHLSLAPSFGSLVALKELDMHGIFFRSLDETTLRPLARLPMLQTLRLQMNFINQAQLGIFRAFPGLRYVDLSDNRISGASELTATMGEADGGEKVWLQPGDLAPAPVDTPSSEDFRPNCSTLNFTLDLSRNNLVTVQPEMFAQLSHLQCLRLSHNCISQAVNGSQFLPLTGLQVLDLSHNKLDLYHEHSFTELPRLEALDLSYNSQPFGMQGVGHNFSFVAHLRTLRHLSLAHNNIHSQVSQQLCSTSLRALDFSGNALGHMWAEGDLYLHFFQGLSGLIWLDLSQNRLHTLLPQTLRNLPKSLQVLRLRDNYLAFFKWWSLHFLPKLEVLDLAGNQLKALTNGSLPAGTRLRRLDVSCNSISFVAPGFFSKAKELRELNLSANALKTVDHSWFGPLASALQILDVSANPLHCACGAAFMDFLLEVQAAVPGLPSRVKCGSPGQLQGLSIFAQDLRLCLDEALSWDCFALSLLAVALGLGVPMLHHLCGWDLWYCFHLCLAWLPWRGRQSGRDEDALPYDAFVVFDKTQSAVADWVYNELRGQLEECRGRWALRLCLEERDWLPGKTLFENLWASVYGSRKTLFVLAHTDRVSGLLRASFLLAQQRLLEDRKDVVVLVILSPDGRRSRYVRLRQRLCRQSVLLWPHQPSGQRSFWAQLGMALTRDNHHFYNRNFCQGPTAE

CYP2D6 = biological target: T3, CYP2D6 (Homo sapiens, UniProt P10635); test: CYP inhibition assay in human liver microsome, CYP2D6; assay type: in vitro ADME; conditions: percentage inhibition, substrate Dextromethorphan 5 μM, <0: not or weak inhibitor
T3 construct: tissue BD-Gentest 452117; host or cells: human liver microsomes
T3 sequence (P10635 whole entry): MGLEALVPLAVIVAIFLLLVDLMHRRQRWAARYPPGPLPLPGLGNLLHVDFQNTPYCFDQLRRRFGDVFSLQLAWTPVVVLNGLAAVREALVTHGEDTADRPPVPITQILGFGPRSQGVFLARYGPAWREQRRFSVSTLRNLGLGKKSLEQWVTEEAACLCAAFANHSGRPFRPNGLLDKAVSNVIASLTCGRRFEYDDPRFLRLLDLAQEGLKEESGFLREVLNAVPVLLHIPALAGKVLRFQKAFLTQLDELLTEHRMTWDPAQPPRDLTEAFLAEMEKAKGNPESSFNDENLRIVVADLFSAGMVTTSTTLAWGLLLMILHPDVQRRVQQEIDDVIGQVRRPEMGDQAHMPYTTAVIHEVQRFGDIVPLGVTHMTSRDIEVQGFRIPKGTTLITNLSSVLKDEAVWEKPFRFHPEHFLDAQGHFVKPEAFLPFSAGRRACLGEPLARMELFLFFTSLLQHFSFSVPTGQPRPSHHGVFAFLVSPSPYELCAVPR
Method: (§1) This is a high throughput screening assay used for assessment of reversible inhibition of CYP2C9, CYP2D6, and CYP3A4 activity of test compounds in human liver microsome (HLM) in early discovery stage.
(§2) Procedure 10 mM DMSO stock solutions of test compounds were diluted in DMSO to generate 2 mM intermediate stock solution. 250 nL of intermediate stock solution were transferred in duplicate into 3 separate 384 well microtitre plates (assay-ready plates). A mixture of HLM and each substrate was made up. 45 μL of HLM substrate mix was then transferred to each well of an assay ready plate and mixed. The negative (solvent) and positive controls (standard inhibitor for each CYP) were included in each assay ready plate. The assay ready plate was warmed to 37° C. in an incubator over 10 minutes. 5 μL pre-warmed NADPH regenerating system was added to each incubation well to start the reaction. Final incubation volume was 50 μL. The assay plate then was placed back in the 37° C. incubator. After incubation (10 minutes for CYP2D6) for 5 minutes, incubates were quenched by addition of 50 μL 100% acetonitrile containing internal standards (400 ng/mL 13C6-4′-OH-Diclofenac, 20 ng/mL D3-Dextrorphan and 20 ng/mL D4-1′OH-Midazolam). The supernatants were collected for RapidFire/MS/MS analysis.
(§3) RapidFire online solid phase extraction/sample injection system (Agilent) coupled with API4000 triple quadrupole mass spectrometer (AB Sciex) were used for sample analysis. The mobile phase composed of acetonitrile and water supplemented with 0.1% formic acid. A C4 solid phase extraction cartridge is used for sample separation. MS detection is achieved in positive ion MRM mode.
(§4) Data analysis Peak areas for substrate, metabolite and internal standard are determined using the RapidFire integrator software (version 3.6.12009.12296). Peak area ratios (PAR) of metabolite and internal standard (stable-labelled metabolite) are then calculated. The measurement window for each experiment is then defined: PAR (0% activity)=average PAR for all incubations containing concentrated inhibitor; Par (100% activity)=average PAR for all incubations containing no inhibitor (DMSO controls); % Activity (test inhibitor)=[PAR (test inhibitor)-PAR (0% activity)]/[PAR (100% activity)-PAR (0% activity)]; % Inhibition (test inhibitor)=100-% Activity (test inhibitor).

CYP3A4 = biological target: T4, CYP3A4 (Homo sapiens, UniProt P08684); test: CYP inhibition assay in human liver microsome, CYP3A4; assay type: in vitro ADME; conditions: percentage inhibition, substrate Midazolam 5 μM, <0: not or weak inhibitor
T4 construct: tissue BD-Gentest 452117; host or cells: human liver microsomes
T4 sequence (P08684 whole entry): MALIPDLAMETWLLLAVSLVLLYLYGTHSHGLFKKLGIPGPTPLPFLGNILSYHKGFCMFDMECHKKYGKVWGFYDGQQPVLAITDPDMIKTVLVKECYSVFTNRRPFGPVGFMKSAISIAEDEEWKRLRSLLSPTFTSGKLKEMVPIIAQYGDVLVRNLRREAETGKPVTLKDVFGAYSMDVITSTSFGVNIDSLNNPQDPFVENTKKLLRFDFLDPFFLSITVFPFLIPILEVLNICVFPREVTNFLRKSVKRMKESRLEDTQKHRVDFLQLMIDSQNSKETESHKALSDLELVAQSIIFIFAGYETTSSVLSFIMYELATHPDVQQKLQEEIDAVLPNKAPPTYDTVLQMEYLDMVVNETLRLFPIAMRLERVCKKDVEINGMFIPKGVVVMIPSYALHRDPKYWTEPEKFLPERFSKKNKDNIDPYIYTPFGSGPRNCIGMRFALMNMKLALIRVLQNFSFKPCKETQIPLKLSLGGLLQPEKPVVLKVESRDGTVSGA
Method: as §1, §2, §3, §4

CYP2C9 = biological target: T5, CYP2C9 (Homo sapiens, UniProt P11712); test: CYP inhibition assay in human liver microsome, CYP2C9; assay type: in vitro ADME; conditions: percentage inhibition, substrate Diclofenac 5 μM, <0: not or weak inhibitor
T5 construct: tissue BD-Gentest 452117; host or cells: human liver microsomes
T5 sequence (P11712 whole entry): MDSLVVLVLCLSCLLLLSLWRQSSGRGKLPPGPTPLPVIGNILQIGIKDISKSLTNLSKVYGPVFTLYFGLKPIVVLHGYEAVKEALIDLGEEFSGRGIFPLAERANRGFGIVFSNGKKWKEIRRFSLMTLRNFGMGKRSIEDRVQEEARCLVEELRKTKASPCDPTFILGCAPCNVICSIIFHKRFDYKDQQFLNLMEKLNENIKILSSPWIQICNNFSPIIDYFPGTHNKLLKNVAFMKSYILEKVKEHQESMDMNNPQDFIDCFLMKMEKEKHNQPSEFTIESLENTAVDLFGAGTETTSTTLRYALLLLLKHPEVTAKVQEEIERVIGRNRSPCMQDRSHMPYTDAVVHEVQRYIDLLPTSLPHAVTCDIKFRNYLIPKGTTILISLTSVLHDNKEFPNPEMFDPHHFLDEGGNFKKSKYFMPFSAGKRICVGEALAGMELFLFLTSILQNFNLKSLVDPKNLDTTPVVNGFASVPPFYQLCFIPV
Method: as §1, §2, §3, §4

SMILES	safety window (hERG IC20/TLR7/8/9 IC50, in words) (hERG channel)	hERG IC20/TLR7 IC50 (hERG channel)	hERG IC20/TLR9 IC50 (hERG channel)	IC50 (hTLR9) [nM]	CYP (%) 2D6 (CYP2D6) [%]	CYP (%) 3A4 (CYP3A4) [%]	CYP (%) 2C9 (CYP2C9) [%]
C[C@@H]1CN(c2ccc(C#N)c3ncccc23)C[C@H](CN2CCN(c3ccccc3)CC2)O1 [ER-887258, reference compound]	much narrower safety window	8.1	0.3	> 2000	–	–	–
C[C@@H]1CN(c2ccc(C#N)c3ncccc23)C[C@H](CN2CCN(c3ccccn3)CC2)O1 [ER-888285, reference compound]	much narrower safety window	8.4	0.5	> 2000	–	–	–
C[C@@H]1CN(c2ccc(C#N)c3ncccc23)C[C@H](CN2CCN(c3ccncc3)CC2)O1 [ER-888286, reference compound]	much narrower safety window	0.3	0.2	> 2000	52.5	5.5	29.5
C[C@@H]1CN(c2ccc(C#N)c3ncccc23)C[C@H](CN2CC[C@@H](NC(=O)c3ccccc3)C2)O1 [ER-894544]	–	–	–	> 6200	–	–	–
